Converted amounts (≈) assume the structure as drawn. Where two headings read alike, the source gives them in different places.
How the values were obtained:
S. aureus (ATCC 6538) = assay: microbe, parasite or virus in culture; type: cell-based, Staphylococcus aureus; conditions: Staphylococcus aureus, ATCC6538
Excerpt: (§1) The minimum inhibitory concentration (MIC) is the minimum concentration of an antimicrobial agent that prevents the visible growth of a bacterium or bacteria. The MIC is an important piece of data for research on new antimicrobial agents and helps in the effective selection of antibiotics to improve the success of treatment. The minimum bactericidal concentration (MBC) is defined as the lowest antibiotic concentration that kills 99.9% of the inoculum. This study mainly contained eight different microorganisms, which were Staphylococcus aureus (ATCC 6538), methicillin-resistant Staphylococcus aureus (NCTC 12493), Enterococcus faecalis (NCTC 12697), Escherichia coli (ATCC 8739), Klebsiella pneumoniae (ATCC 43816), Pseudomonas aeruginosa (ATCC CRM 9027), Acinetobacter baumannii (BAA 747), and Candida albicans (ATCC 10231). The bacteria were incubated in the compatible medium at 37 °C overnight.

MRSA (NCTC 12493) = assay: microbe, parasite or virus in culture; type: cell-based, methicillin-resistant Staphylococcus aureus; conditions: Staphylococcus aureus
Excerpt: as §1

E. faecalis (NCTC 12697) = assay: microbe, parasite or virus in culture; type: cell-based, Enterococcus faecalis; conditions: Enterococcus faecalis, NCTC12697
Excerpt: as §1

E. coli (ATCC 8739) = assay: microbe, parasite or virus in culture; type: cell-based, Escherichia coli; conditions: Escherichia coli, ATCC8739
Excerpt: as §1

[1] = tested on: K. pneumoniae (ATCC 43816); assay: microbe, parasite or virus in culture; type: cell-based, Klebsiella pneumoniae; conditions: Klebsiella pneumoniae, ATCC43816
Excerpt: as §1

[2] = tested on: P. aeruginosa (ATCC CRM 9027); assay: microbe, parasite or virus in culture; type: cell-based, Pseudomonas aeruginosa; conditions: Pseudomonas aeruginosa
Excerpt: as §1

A. baumannii (BAA 747) = assay: microbe, parasite or virus in culture; type: cell-based, Acinetobacter baumannii; conditions: Acinetobacter baumannii, BAA747
Excerpt: as §1

[3] = tested on: S. aureus ATCC 6538 biofilm; type: cell-based, Staphylococcus aureus; conditions: for MBIC: lowest concentration inhibiting at least 90% of biofilm formation; for MBEC: minimum concentration eradicating at least 99% of the biofilm
Excerpt: (§2) The minimum bactericidal concentration (MBC) is defined as the lowest antibiotic concentration that kills 99.9% of the inoculum. The minimum biofilm inhibitory concentration (MBIC) is the lowest concentration that inhibits at least 90% of the formation of biofilm. The minimum biofilm eradication concentration (MBEC) is the minimum concentration that can eradicate at least 99% of the biofilm. In addition to the eight microorganisms described previously, this experiment was also applied to P. aeruginosa (ATCC 27853, ATCC BAA-2108, P. aeruginosa 01, P. aeruginosa 14).

MRSA NCTC 12493 biofilm = type: cell-based, methicillin-resistant Staphylococcus aureus; conditions: for MBIC: lowest concentration inhibiting at least 90% of biofilm formation; for MBEC: minimum concentration eradicating at least 99% of the biofilm
Excerpt: as §2

[4] = tested on: E. faecalis NCTC 12697 biofilm; type: cell-based, Enterococcus faecalis; conditions: for MBIC: lowest concentration inhibiting at least 90% of biofilm formation; for MBEC: minimum concentration eradicating at least 99% of the biofilm
Excerpt: as §2

[5] = tested on: K. pneumoniae ATCC 43816 biofilm; type: cell-based, Klebsiella pneumoniae; conditions: for MBIC: lowest concentration inhibiting at least 90% of biofilm formation; for MBEC: minimum concentration eradicating at least 99% of the biofilm
Excerpt: as §2

P. aeruginosa 01 biofilm = type: cell-based, Pseudomonas aeruginosa; conditions: for MBIC: lowest concentration inhibiting at least 90% of biofilm formation; for MBEC: minimum concentration eradicating at least 99% of the biofilm
Excerpt: as §2

P. aeruginosa 14 biofilm = type: cell-based, Pseudomonas aeruginosa; conditions: for MBIC: lowest concentration inhibiting at least 90% of biofilm formation; for MBEC: minimum concentration eradicating at least 99% of the biofilm
Excerpt: as §2

[6] = tested on: P. aeruginosa ATCC 27853 biofilm; type: cell-based, Pseudomonas aeruginosa; conditions: for MBIC: lowest concentration inhibiting at least 90% of biofilm formation; for MBEC: minimum concentration eradicating at least 99% of the biofilm
Excerpt: as §2

[7] = tested on: P. aeruginosa ATCC BAA-2108 biofilm; type: cell-based, Pseudomonas aeruginosa; conditions: for MBIC: lowest concentration inhibiting at least 90% of biofilm formation; for MBEC: minimum concentration eradicating at least 99% of the biofilm
Excerpt: as §2

[8] = tested on: P. aeruginosa ATCC CRM 9027 biofilm; type: cell-based, Pseudomonas aeruginosa; conditions: for MBIC: lowest concentration inhibiting at least 90% of biofilm formation; for MBEC: minimum concentration eradicating at least 99% of the biofilm
Excerpt: as §2

[9] = tested on: A. baumannii BAA 747 biofilm; type: cell-based, Acinetobacter baumannii; conditions: for MBIC: lowest concentration inhibiting at least 90% of biofilm formation; for MBEC: minimum concentration eradicating at least 99% of the biofilm
Excerpt: as §2

[10] = planktonic S. aureus ATCC 6538, 37 °C, nine repeats of three independent experiments, read-out: MIC
[11] = planktonic S. aureus ATCC 6538, lowest concentration killing 99.9% of inoculum, read-out: MBC
[12] = planktonic MRSA NCTC 12493, 37 °C, nine repeats of three independent experiments, read-out: MIC
[13] = planktonic MRSA NCTC 12493, lowest concentration killing 99.9% of inoculum, read-out: MBC
[14] = planktonic E. faecalis NCTC 12697, 37 °C, nine repeats of three independent experiments, read-out: MIC
[15] = planktonic E. faecalis NCTC 12697, lowest concentration killing 99.9% of inoculum, read-out: MBC
[16] = planktonic E. coli ATCC 8739, 37 °C, nine repeats of three independent experiments, read-out: MIC
[17] = planktonic E. coli ATCC 8739, lowest concentration killing 99.9% of inoculum, read-out: MBC
[18] = planktonic K. pneumoniae ATCC 43816, 37 °C, nine repeats of three independent experiments, read-out: MIC
[19] = planktonic K. pneumoniae ATCC 43816, lowest concentration killing 99.9% of inoculum, read-out: MBC
[20] = planktonic P. aeruginosa ATCC CRM 9027, 37 °C, nine repeats of three independent experiments, read-out: MIC
[21] = planktonic P. aeruginosa ATCC CRM 9027, lowest concentration killing 99.9% of inoculum, read-out: MBC
[22] = planktonic A. baumannii BAA 747, 37 °C, nine repeats of three independent experiments, read-out: MIC
[23] = planktonic A. baumannii BAA 747, lowest concentration killing 99.9% of inoculum, read-out: MBC

| Compound | MIC (S. aureus (ATCC 6538); [10]) [µM] | MBC (S. aureus (ATCC 6538); [11]) [µM] | MIC (MRSA (NCTC 12493); [12]) [µM] | MBC (MRSA (NCTC 12493); [13]) [µM] | MIC (E. faecalis (NCTC 12697); [14]) [µM] | MBC (E. faecalis (NCTC 12697); [15]) [µM] | MIC (E. coli (ATCC 8739); [16]) [µM] | MBC (E. coli (ATCC 8739); [17]) [µM] | MIC [1, 18] [µM] | MBC [1, 19] [µM] | MIC [2, 20] [µM] | MBC [2, 21] [µM] | MIC (A. baumannii (BAA 747); [22]) [µM] | MBC (A. baumannii (BAA 747); [23]) [µM] | MBIC [3] [µM] | MBEC [3] [µM] | MBIC (MRSA NCTC 12493 biofilm) | MBEC (MRSA NCTC 12493 biofilm) | MBIC [4] | MBEC [4] | further results |
| --- | --- | --- | --- | --- | --- | --- | --- | --- | --- | --- | --- | --- | --- | --- | --- | --- | --- | --- | --- | --- | --- |
| CO/N=C(\C(=O)N[C@@H]1C(=O)N2C(C(=O)[O-])=C(C[N+]3(C)CCCC3)CS[C@H]12)c1csc(N)n1 [Cefepime, reference compound] | 32 (≈ 15.4 µg/mL) | 64 (≈ 30.8 µg/mL) | 16 (≈ 7.69 µg/mL) | 32 (≈ 15.4 µg/mL) | 128 (≈ 61.5 µg/mL) | > 128 | 8 (≈ 3.84 µg/mL) | 16 (≈ 7.69 µg/mL) | 128 (≈ 61.5 µg/mL) | > 128 | 2 (≈ 0.961 µg/mL) | 2 (≈ 0.961 µg/mL) | 1 (≈ 0.481 µg/mL) | 2 (≈ 0.961 µg/mL) | 4 | 8 | >128/>128 µM | >128/>128 µM | >128/>128 µM | >128/>128 µM | MBIC [5]: >128/>128 µM; MBEC [5]: >128/>128 µM; MBIC (P. aeruginosa 01 biofilm): 4 µM; MBEC (P. aeruginosa 01 biofilm): > 128 µM; MBIC (P. aeruginosa 14 biofilm): 8 µM; MBEC (P. aeruginosa 14 biofilm): > 128 µM; MBIC [6]: 2 µM; MBEC [6]: 4 µM; MBIC [7]: 64 µM; MBEC [7]: > 128 µM; MBIC [8]: >128/>128 µM; MBEC [8]: >128/>128 µM; MBIC [9]: 128/>128 µM; MBEC [9]: 128/>128 µM |
| CNC(C)C1CCC(N)C(OC2C(N)CC(N)C(OC3OCC(C)(O)C(NC)C3O)C2O)O1 (stereo not drawn) [Gentamicin, reference compound] | 2 (≈ 0.955 µg/mL) | 2 (≈ 0.955 µg/mL) | 1 (≈ 0.478 µg/mL) | 2 (≈ 0.955 µg/mL) | 16 (≈ 7.64 µg/mL) | 32 (≈ 15.3 µg/mL) | 2 (≈ 0.955 µg/mL) | 4 (≈ 1.91 µg/mL) | 1 (≈ 0.478 µg/mL) | 1 (≈ 0.478 µg/mL) | 0.25 (≈ 0.119 µg/mL) | 0.5 (≈ 0.239 µg/mL) | > 128 | > 128 | 8 | 16 | 2 µM | > 128 µM | >128/>128 µM | >128/>128 µM | MBIC [5]: 32/32 µM; MBEC [5]: 32/32 µM; MBIC (P. aeruginosa 01 biofilm): 4 µM; MBEC (P. aeruginosa 01 biofilm): 8 µM; MBIC (P. aeruginosa 14 biofilm): 2 µM; MBEC (P. aeruginosa 14 biofilm): 4 µM; MBIC [6]: 4 µM; MBEC [6]: > 128 µM; MBIC [7]: 16 µM; MBEC [7]: 128 µM; MBIC [8]: 2 µM; MBEC [8]: 4 µM; MBIC [9]: 8 µM; MBEC [9]: 16 µM |
| C[C@H]1COc2c(N3CCN(C)CC3)c(F)cc3c(=O)c(C(=O)O)cn1c23 [Levofloxacin, reference compound] | 0.5 (≈ 0.181 µg/mL) | 0.5 (≈ 0.181 µg/mL) | 0.25 (≈ 0.0903 µg/mL) | 0.5 (≈ 0.181 µg/mL) | 2 (≈ 0.723 µg/mL) | 8 (≈ 2.89 µg/mL) | 0.25 (≈ 0.0903 µg/mL) | 0.5 (≈ 0.181 µg/mL) | > 128 | > 128 | 2 (≈ 0.723 µg/mL) | 2 (≈ 0.723 µg/mL) | 1 (≈ 0.361 µg/mL) | 1 (≈ 0.361 µg/mL) |  |  |  |  |  |  |  |
| CN[C@H](CC(C)C)C(=O)N[C@H]1C(=O)N[C@@H](CC(N)=O)C(=O)N[C@H]2C(=O)N[C@H]3C(=O)N[C@H](C(=O)N[C@H](C(=O)O)c4cc(O)cc(O)c4-c4cc3ccc4O)[C@H](O)c3ccc(c(Cl)c3)Oc3cc2cc(c3O[C@@H]2O[C@H](CO)[C@@H](O)[C@H](O)[C@H]2O[C@H]2C[C@](C)(N)[C@H](O)[C@H](C)O2)Oc2ccc(cc2Cl)[C@H]1O [Vancomycin, reference compound] |  |  |  |  |  |  |  |  |  |  |  |  |  |  |  |  |  |  |  |  | MBC (S. aureus (ATCC 6538)): 64 µM (≈ 92.8 µg/mL); MIC (S. aureus (ATCC 6538)): 8 µM (≈ 11.6 µg/mL); MBC (MRSA (NCTC 12493)): 8 µM (≈ 11.6 µg/mL); MIC (MRSA (NCTC 12493)): 4 µM (≈ 5.8 µg/mL); MBC (E. faecalis (NCTC 12697)): > 128 µM; MIC (E. faecalis (NCTC 12697)): 32 µM (≈ 46.4 µg/mL); MBC (E. coli (ATCC 8739)): > 128 µM; MIC (E. coli (ATCC 8739)): 32 µM (≈ 46.4 µg/mL); MBC [1]: > 128 µM; MIC [1]: > 128 µM; MBC [2]: > 128 µM; MIC [2]: > 128 µM; MBC (A. baumannii (BAA 747)): > 128 µM; MIC (A. baumannii (BAA 747)): > 128 µM |

Reference: PMC11274128, “Modification and Synergistic Studies of a Novel Frog Antimicrobial Peptide against Pseudomonas aeruginosa Biofilms” (Antibiotics, 2024)
